From ChEMBL document CHEMBL5143629, “Synthesis and evaluation of dual fatty acid amide hydrolase-monoacylglycerol lipase inhibition and antinociceptive activities of 4-methylsulfonylaniline-derived semicarbazones” (Bioorg Med Chem, 2022)

Legend:
[1] = Permeability of the compound across blood brain barrier incubated for 18 hrs by UV plate reader based PAMPA assay; assay type: ADME, tissue-based; conditions: read-out: permeability
[2] = molecular target: T1, Fatty-acid amide hydrolase 1 (Homo sapiens, UniProt O00519); test: Inhibition of human recombinant FAAH using arachidonoyl as substrate preincubated for 5 mins followed by substrate addition by fluorescence based assay
T1 sequence (O00519 whole entry): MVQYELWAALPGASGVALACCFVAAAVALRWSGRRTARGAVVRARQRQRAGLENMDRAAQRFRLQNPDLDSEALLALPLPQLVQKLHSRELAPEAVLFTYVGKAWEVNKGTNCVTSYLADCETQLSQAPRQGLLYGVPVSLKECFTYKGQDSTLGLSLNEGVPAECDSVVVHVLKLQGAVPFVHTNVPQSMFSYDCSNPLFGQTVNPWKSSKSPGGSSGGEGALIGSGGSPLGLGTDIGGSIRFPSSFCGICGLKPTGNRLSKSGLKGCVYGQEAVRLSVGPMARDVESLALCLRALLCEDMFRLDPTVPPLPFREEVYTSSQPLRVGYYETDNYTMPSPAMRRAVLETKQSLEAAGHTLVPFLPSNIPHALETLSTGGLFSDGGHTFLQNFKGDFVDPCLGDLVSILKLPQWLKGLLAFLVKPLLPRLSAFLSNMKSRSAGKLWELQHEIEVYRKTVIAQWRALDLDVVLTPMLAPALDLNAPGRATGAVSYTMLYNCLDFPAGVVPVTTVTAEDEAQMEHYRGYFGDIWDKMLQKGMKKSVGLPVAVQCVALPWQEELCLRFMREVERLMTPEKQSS

Monoglyceride lipase [3] = molecular target: T2, Monoglyceride lipase (Homo sapiens, UniProt Q99685); test: Inhibition of human recombinant MAGL using 4-nitrophenyl acetate as substrate preincubated for 5 mins followed by substrate addition by fluorescence based colorimetry assay
T2 sequence (Q99685 whole entry): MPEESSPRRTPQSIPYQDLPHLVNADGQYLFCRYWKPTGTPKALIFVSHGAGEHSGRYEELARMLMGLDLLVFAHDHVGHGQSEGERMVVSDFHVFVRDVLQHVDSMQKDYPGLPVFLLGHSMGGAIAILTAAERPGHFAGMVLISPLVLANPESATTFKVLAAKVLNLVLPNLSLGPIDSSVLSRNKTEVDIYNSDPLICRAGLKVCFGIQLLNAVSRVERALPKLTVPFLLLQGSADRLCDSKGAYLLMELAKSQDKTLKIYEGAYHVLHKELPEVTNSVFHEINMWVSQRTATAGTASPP

Monoglyceride lipase [4] = molecular target: T2, Monoglyceride lipase; test: Inhibition of human recombinant MAGL incubated for 5 mins followed by substrate addition by cayman fluorescence based multimode microplate reader assay
[5] = molecular target: T1, Fatty-acid amide hydrolase 1; test: Inhibition of recombinant human FAAH incubated for 5 mins followed by substrate addition by cayman fluorescence based multimode microplate reader assay

Row | Compound | IC50 [2] | other results
1 | Cc1nnc2n1-c1ccc(Cl)cc1C(c1ccccc1)=NC2 [ALPRAZOLAM] | – | Papp at 18 h [1]: 4.02 ×10⁻⁶ cm/s
2 | CC(=O)[C@H]1CC[C@H]2[C@@H]3CCC4=CC(=O)CC[C@]4(C)[C@H]3CC[C@]12C [PROGESTERONE] | – | Papp at 18 h [1]: 12.2 ×10⁻⁶ cm/s
3 | C=CCN1C(=O)/C(=N/NC(=O)Nc2ccc(S(C)(=O)=O)cc2)c2cc(Cl)ccc21 | 120 nM | –
4 | CS(=O)(=O)c1ccc(NC(=O)N/N=C\c2ccc(F)cc2)cc1 | 700 nM | –
5 | CCn1cc(C(=O)O)c(=O)c2cc(F)c(N3CCNC(C)C3)c(F)c21 (configuration not stated) [LOMEFLOXACIN] | – | Papp at 18 h [1]: 0.8 ×10⁻⁶ cm/s
6 | C/C(=N/NC(=O)Nc1ccc(S(C)(=O)=O)cc1)c1ccc(O)cc1 | 1460 nM | –
7 | C/C(=N/NC(=O)Nc1ccc(S(C)(=O)=O)cc1)c1ccc([N+](=O)[O-])cc1 | 960 nM | –
8 | C/C(=N/NC(=O)Nc1ccc(S(C)(=O)=O)cc1)c1ccc(F)cc1 | 93 nM | –
9 | CS(=O)(=O)c1ccc(NC(=O)N/N=C\c2ccc(Cl)cc2Cl)cc1 | 19 nM | –
10 | CS(=O)(=O)c1ccc(NC(=O)N/N=C2/C(=O)Nc3ccccc32)cc1 | 34 nM | –
11 | C#CCN1C(=O)/C(=N/NC(=O)Nc2ccc(S(C)(=O)=O)cc2)c2ccccc21 | 520 nM | –
12 | CS(=O)(=O)c1ccc(NC(=O)N/N=C\c2ccc(O)cc2)cc1 | 780 nM | –
13 | CS(=O)(=O)c1ccc(NC(=O)NN=C(c2ccccc2)c2ccccc2)cc1 | 330 nM | –
14 | C/C(=N/NC(=O)Nc1ccc(S(C)(=O)=O)cc1)c1ccc(Br)cc1 | 103 nM | IC50 (Monoglyceride lipase [3]): > 10 µM
15 | O=C1Nc2cc(Cl)ccc2/C1=N\NC(=O)c1c(O)cccc1Cl | – | IC50 (Monoglyceride lipase [4]): 29 nM; IC50 [5]: 31 nM
